One may read the half-life as the time in which the quantity being followed falls by half. The Papp A→B is how fast a substance crosses the layer from the apical side. Usually Tmax stands for the time from dosing to the highest level. In general, inhibition in vivo refers to the share of the control response that was lost under treatment. A word on the MTD: it is the largest dose that counted as tolerated. What is called inhibition is the share of the control response that was lost under treatment.

Data set [1] is described as follows: Metabolic stability in rat lung S9 fraction assessed as half life at 1 uM measured after 0 to 60 mins in presence of NADPH by LC-MS/MS analysis. It counts as ADME, subcellular. The conditions noted are these: time 0-60 min.
Data set [2] in a line: Metabolic stability in rat hepatocytes assessed as clearance at 1 uM measured per 10^6 cells and incubated upto 90 mins by LC-MS/MS analysis. It counts as ADME, cell-based, Hepatocyte. To be noted: read-out: CLH.
The nature of data set [3]: Metabolic stability in human liver microsomes assessed as clearance at 1 uM measured per mg protein incubated upto 60 mins in presence of NADPH by LC-MS/MS analysis. It counts as ADME, Microsome. The conditions noted are these: read-out: CLH.
The nature of data set [4]: Apparent permeability across apical to basolateral side in human Caco-2 cells at 10 uM and measured after 2 hrs by LC-MS/MS analysis. It counts as ADME, cell-based. For orientation: Caco-2 cells form a polarised layer with tight junctions and transporters.
The nature of data set [5]: Metabolic stability in human plasma assessed as half life at 5 uM measured upto 120 mins by LC-MS/MS analysis. It counts as ADME, cell-free.
Data set [6] is described as follows: Metabolic stability in rat plasma assessed as half life at 5 uM measured upto 120 mins by LC-MS/MS analysis. It counts as ADME, cell-free.
A short description of data set [7]: Tmax in Dunkin-Hartley guinea pig lung at 500 nmol/Kg, IT(Intratracheal) measured after 72 hrs by LC/MS-MS analysis. It counts as ADME, tissue-based, Cavia porcellus. To be noted: inhaled or intranasal.
Data set [8] in a line: AUCinfinity in Dunkin-Hartley guinea pig lung at 500 nmol/Kg, IT(Intratracheal) measured after 72 hrs by LC/MS-MS analysis. It counts as ADME, tissue-based, Cavia porcellus. On the set-up: dose 500 nmol/kg, time 72 hrs, route it(Intratracheal). To be noted: in vivo, inhaled_or_intranasal.
Data set [9] in a line: Half life in Dunkin-Hartley guinea pig plasma at 500 nmol/Kg, IT(Intratracheal) measured after 72 hrs by LC/MS-MS analysis. It counts as ADME, cell-free, Cavia porcellus. To be noted: inhaled or intranasal.
Data set [10] in a line: Mutagenicity in Escherichia coli assessed as induction of reverse mutation by Ames test. It counts as toxicity. (In general: The Ames test uses bacterial strains that need an amino acid and regain growth without it when mutated back.)
Data set [11] concerns Trachea. The experiment in a line: Bifunctional antagonist activity at muscarinic M3 receptor /agonist activity at beta-2 adrenoceptor in Dunkin-Hartley guinea pig trachea assessed as inhibition of acetylcholine-induced bronchoconstriction at 0.1 nmol/Kg, IT(Intratracheal) measured after 5 mins by Konzett-Roessler methodology relative to control. It counts as functional. To be noted: Cavia porcellus.

Data set [12] deals with Trachea. The experiment in a line: Bifunctional antagonist activity at muscarinic M3 receptor /agonist activity at beta-2 adrenoceptor in Dunkin-Hartley guinea pig trachea assessed as inhibition of acetylcholine-induced bronchoconstriction at 0.1 nmol/Kg, IT(Intratracheal) measured after 30 mins by Konzett-Roessler methodology relative to control. It counts as functional. The conditions noted are these: Cavia porcellus, 0.5 h.

Data set [13] concerns Trachea. The experiment in a line: Bifunctional antagonist activity at muscarinic M3 receptor /agonist activity at beta-2 adrenoceptor in Dunkin-Hartley guinea pig trachea assessed as inhibition of acetylcholine-induced bronchoconstriction at 0.3 nmol/Kg, IT(Intratracheal) measured after 30 mins by Konzett-Roessler methodology relative to control. It counts as functional. To be noted: Cavia porcellus, 0.5 h.

Data set [14] in a line: Toxicity in INH dosed dog assessed as maximum tolerated dose measured after 7 days. It counts as organism-based, Canis lupus familiaris. To be noted: in vivo, inhaled or intranasal, time 7 day.
In data set [15] the target is T1, 5-hydroxytryptamine receptor 2C (Homo sapiens) (UniProt P28335).
T1 sequence (whole entry): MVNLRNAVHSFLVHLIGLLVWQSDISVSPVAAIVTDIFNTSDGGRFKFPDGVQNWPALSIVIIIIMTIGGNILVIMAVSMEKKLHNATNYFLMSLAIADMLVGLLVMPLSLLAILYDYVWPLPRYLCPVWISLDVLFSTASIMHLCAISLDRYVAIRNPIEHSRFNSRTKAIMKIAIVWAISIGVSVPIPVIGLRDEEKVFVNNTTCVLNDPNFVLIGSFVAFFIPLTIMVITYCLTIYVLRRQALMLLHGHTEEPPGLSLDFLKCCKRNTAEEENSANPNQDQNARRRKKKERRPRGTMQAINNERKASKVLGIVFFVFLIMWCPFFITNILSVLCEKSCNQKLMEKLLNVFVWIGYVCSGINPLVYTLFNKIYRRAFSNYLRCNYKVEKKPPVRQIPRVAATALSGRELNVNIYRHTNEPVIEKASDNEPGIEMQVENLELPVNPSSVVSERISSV
Briefly: Inhibition of 5-HT2c (unknown origin) at 10 uM relative to control.

The target in data set [16] is L-type calcium channel phenylalkylamine site (Homo sapiens, UniProt O60840+Q01668+Q13698+Q13936). The experiment in a line: Inhibition of L-type calcium channel phenylalkylamine site (unknown origin) at 10 uM relative to control. It counts as protein assay.
Data set [17] is described as follows: In vivo antagonist activity at muscarinic M3 receptor in Dunkin-Hartley guinea pig trachea assessed as inhibition of acetylcholine induced bronchoconstriction at 1 nmol/Kg, IT(Intratracheal) measured after 24 hr in presence of ICI-118551 by Konzett-Roessler methodology relative to control. It counts as functional. To be noted: Cavia porcellus.
Data set [18] can be described thus: In vivo antagonist activity at muscarinic M3 receptor in Dunkin-Hartley guinea pig trachea assessed as inhibition of acetylcholine induced bronchoconstriction at 0.3 nmol/Kg, IT(Intratracheal) measured after 24 hr in presence of ICI-118551 by Konzett-Roessler methodology relative to control. It counts as functional. The conditions noted are these: Cavia porcellus.

Data set [19] has as its system Trachea. Briefly: Bifunctional antagonist activity at muscarinic M3 receptor /agonist activity at beta-2 adrenoceptor in Dunkin-Hartley guinea pig trachea assessed as inhibition of acetylcholine induced bronchoconstriction at 0.3 nmol/Kg, IT(Intratracheal) measured after 1 hr by Konzett-Roessler methodology relative to control. It counts as functional. To be noted: Cavia porcellus.

Data set [20] concerns Trachea. Briefly: Bifunctional antagonist activity at muscarinic M3 receptor /agonist activity at beta-2 adrenoceptor in Dunkin-Hartley guinea pig trachea assessed as inhibition of acetylcholine induced bronchoconstriction at 1 nmol/Kg, IT(Intratracheal) measured after 1 hr by Konzett-Roessler methodology relative to control. It counts as functional. To be noted: Cavia porcellus.

Where only a bound is given, the exact number is not on record here.

As to `Cn1nc(C(=O)OCCCCNC[C@H](O)c2ccc(O)c3[nH]c(=O)ccc23)cc1COc1cccc([C@@H](NC(=O)O[C@H]2CN3CCC2CC3)c2ccccc2)c1`, the half-life at 1 µM in [1] amounted to 30 min. For the same molecule, the hepatocyte CLint at 1 µM in [2] was determined as 32 µL/min/1e6 cells. Further, the microsomal CLint at 1 µM in data set [3] is 14 µL/min/mg. In [4], the Papp A→B at 2 h, 10 µM was 2.4 ×10⁻⁶ cm/s. Further, the half-life at 5 µM was 20 min in data set [5] and below 5 min in data set [6]. Moreover, the Tmax in data set [7] worked out at 4.98 min. Besides, the AUC in data set [8] came to 725199 ng·h/g. The half-life in data set [9] is 924 min. The Activity entry in data set [10] is “Non-Toxic”. Besides, the inhibition in vivo at 0.0001 µmol/kg in the data set on Trachea [11] was 9.7%; in the data set on Trachea [12], 33.1%. In addition, the inhibition in vivo at 0.0003 µmol/kg in the data set with Trachea [13] amounted to 65.9%; in data set [18], 30.1%; in the data set with Trachea [19], 58.4%. The MTD at 168 h in data set [14] is 0.124 mg/kg/day. Moreover, the inhibition in [15] is above 65%. For the same molecule, the inhibition at 10 µM in [16] was above 65%. Further, the inhibition in vivo at 0.001 µmol/kg is 47.2% in data set [17] and 92.4% with Trachea [20].
